According to US20080153743A1, “METHODS RELATING TO THE TREATMENT OF FIBROSIS” (UNIVERSITY OF WASHINGTON, priority 2005, published 2008):

Columns and labels:
[1] = test system: TCF/β-catenin transcription; assay: Bat-Gal transgenic mice, bleomycin model, X-Gal/β-galactosidase read out of TCF/β-catenin transcription; type: in vivo; settings: 5 mg/Kg/day s.c., intratracheal bleomycin
Description: Furthermore, utilizing a specific inhibitor of Wnt/β-catenin/CBP driven transcription (ICG-001, 5 mg/Kg/day s.c.) Wnt/β-catenin was inhibited by >95% as judged by β-galactogidase activity. ICG-001 is among the structures described in detail below.
Using this murine model of pulmonary fibrosis in transgenic Bat-al mice, ICG-001 (5 mg/Kg/day) blocked >95% of bleomycin-induced TCF/βcatenin transcription.
These mice have a Beta-Galactosidase transgene driven by a TCF/Catenin driven promoter (i.e. a read out for activated Wnt/catenin signaling). The mice were given intratracheal saline or bleomycin and either treated with ICG-001 (5 mgs/Kg/day subcutaneously) or saline as vehicle control. The mice were sacrificed and the lungs sectioned and stained with X-Gal (blue color) A) intratracheal bleo+saline. B) intracheal bleo+ICG-001 C) saline+saline.
The dose was selected because ICG-001 reduces TCF/βCatenin driven O-Galactosidase expression >95% at 5 mgs/Kg/day.

[2] = test system: bleomycin induced pulmonary fibrosis; assay: Bleomycin induced pulmonary fibrosis in C57/B16 mice, trichrome histology, body weight, survival; type: in vivo
Description: Murine models of bleomycin induced fibrosis have been developed in order to study fibrotic disease progression.
There is an absence of airway epithelium in lower left compared to upper left (see arrow heads) and extensive collagen deposition (lower left). On the sixth day, either saline (upper right) or ICG-001 (5 mgs/Kg/day) was administered for 10 days after which the mice were sacrificed and sectioned. Of interest is the upper right (saline treatment) showing lack of normal airway epithelialization, extensive collagen deposition and intra-airway hypercellularity (fibroblasts and inflammatory influx).

S100A4 = assay: RT-PCR for S100A4 in bleomycin treated mice; type: in vivo; settings: 5 mgs/Kg/day s.c., versus saline/saline mice
collagen1A2 = assay: RT-PCR for collagen1A2 in bleomycin treated mice; type: in vivo; settings: 5 mgs/Kg/day s.c., versus saline/saline mice
S100A4 (FSP-1) = assay: Western blot for S100A4 in IPF patient fibroblasts; type: cell-based, human; settings: RPMI1640+10% FBS, 2 days, also true at the mRNA level
Description: (§1) Western blots for S100A4 (also know as FSP-1 or fibroblast specific protein-1) and E-Cadherin were performed on whole cell lysates.

E-Cadherin = assay: Western blot for E-Cadherin in IPF patient fibroblasts; type: cell-based, human; settings: RPMI1640+10% FBS, 2 days, also true at the mRNA level
Description: as §1

[3] = biological target: β-catenin/CBP interaction (Homo sapiens, UniProt Q92793); settings: cited from earlier work
[4] = biological target: β-catenin/p300 interaction (Homo sapiens, UniProt Q09472); settings: cited from earlier work
[5] = 5 mgs/Kg/day for 10 days from the sixth day after intratracheal bleomycin

Sequence of β-catenin/p300 interaction (Q09472 whole entry): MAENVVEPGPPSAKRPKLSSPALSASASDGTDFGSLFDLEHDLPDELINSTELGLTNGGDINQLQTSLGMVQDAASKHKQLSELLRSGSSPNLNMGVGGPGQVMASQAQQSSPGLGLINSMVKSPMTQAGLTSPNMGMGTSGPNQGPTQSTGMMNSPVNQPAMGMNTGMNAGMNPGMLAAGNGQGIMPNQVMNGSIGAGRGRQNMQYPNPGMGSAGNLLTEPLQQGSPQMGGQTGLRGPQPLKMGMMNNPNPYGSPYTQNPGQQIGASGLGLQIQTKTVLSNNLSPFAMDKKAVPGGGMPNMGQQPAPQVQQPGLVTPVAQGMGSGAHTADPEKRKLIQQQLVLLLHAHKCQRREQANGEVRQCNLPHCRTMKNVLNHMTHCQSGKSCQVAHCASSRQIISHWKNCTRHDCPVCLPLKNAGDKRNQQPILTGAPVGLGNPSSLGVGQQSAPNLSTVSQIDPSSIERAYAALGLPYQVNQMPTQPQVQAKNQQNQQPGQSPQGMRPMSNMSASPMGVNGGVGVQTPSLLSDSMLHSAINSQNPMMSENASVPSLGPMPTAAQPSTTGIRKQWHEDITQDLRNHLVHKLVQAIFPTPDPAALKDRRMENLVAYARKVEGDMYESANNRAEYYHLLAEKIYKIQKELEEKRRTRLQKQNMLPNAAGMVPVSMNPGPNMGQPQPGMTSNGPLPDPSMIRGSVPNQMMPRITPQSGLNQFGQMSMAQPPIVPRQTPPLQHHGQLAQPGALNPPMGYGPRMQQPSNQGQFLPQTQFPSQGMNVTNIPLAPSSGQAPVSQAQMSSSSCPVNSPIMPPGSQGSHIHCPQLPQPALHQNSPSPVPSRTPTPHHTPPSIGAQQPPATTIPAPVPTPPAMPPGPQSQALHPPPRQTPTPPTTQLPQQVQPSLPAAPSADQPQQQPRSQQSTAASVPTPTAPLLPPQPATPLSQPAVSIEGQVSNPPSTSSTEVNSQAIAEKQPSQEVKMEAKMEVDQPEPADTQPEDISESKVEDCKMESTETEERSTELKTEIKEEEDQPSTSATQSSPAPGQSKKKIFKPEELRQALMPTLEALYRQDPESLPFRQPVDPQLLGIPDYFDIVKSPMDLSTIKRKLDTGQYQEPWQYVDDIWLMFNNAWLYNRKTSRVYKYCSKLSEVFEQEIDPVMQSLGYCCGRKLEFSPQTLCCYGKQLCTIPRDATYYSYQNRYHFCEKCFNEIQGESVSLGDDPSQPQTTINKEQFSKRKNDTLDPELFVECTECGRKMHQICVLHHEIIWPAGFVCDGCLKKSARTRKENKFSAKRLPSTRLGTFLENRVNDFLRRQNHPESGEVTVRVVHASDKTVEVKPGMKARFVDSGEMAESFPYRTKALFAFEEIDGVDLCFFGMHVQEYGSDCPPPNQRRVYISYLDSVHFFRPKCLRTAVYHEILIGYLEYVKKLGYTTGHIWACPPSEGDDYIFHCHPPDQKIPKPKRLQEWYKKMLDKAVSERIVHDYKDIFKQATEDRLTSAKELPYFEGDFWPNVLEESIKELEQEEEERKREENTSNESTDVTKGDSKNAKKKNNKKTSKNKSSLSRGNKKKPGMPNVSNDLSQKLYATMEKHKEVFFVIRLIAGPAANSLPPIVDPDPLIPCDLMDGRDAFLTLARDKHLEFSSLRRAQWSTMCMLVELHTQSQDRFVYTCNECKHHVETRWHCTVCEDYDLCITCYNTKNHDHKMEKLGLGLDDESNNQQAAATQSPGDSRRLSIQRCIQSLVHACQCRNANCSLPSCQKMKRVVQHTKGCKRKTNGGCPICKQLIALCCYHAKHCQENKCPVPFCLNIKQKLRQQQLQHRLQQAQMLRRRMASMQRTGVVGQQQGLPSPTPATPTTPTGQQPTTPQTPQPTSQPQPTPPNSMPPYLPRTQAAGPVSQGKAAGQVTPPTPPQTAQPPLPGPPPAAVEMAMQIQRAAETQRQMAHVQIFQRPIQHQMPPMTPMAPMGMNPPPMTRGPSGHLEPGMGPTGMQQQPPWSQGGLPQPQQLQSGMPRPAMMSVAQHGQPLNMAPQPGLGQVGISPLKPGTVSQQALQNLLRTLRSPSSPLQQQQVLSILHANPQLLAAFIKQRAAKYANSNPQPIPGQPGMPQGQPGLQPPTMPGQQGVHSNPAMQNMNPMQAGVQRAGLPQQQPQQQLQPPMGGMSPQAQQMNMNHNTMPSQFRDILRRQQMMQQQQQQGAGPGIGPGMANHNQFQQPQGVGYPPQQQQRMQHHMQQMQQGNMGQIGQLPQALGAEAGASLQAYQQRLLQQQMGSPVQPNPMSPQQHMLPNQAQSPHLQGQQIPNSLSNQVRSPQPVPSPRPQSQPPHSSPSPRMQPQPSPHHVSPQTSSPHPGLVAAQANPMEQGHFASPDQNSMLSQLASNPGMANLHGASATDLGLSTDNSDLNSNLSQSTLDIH
Sequence of β-catenin/CBP interaction (Q92793 whole entry): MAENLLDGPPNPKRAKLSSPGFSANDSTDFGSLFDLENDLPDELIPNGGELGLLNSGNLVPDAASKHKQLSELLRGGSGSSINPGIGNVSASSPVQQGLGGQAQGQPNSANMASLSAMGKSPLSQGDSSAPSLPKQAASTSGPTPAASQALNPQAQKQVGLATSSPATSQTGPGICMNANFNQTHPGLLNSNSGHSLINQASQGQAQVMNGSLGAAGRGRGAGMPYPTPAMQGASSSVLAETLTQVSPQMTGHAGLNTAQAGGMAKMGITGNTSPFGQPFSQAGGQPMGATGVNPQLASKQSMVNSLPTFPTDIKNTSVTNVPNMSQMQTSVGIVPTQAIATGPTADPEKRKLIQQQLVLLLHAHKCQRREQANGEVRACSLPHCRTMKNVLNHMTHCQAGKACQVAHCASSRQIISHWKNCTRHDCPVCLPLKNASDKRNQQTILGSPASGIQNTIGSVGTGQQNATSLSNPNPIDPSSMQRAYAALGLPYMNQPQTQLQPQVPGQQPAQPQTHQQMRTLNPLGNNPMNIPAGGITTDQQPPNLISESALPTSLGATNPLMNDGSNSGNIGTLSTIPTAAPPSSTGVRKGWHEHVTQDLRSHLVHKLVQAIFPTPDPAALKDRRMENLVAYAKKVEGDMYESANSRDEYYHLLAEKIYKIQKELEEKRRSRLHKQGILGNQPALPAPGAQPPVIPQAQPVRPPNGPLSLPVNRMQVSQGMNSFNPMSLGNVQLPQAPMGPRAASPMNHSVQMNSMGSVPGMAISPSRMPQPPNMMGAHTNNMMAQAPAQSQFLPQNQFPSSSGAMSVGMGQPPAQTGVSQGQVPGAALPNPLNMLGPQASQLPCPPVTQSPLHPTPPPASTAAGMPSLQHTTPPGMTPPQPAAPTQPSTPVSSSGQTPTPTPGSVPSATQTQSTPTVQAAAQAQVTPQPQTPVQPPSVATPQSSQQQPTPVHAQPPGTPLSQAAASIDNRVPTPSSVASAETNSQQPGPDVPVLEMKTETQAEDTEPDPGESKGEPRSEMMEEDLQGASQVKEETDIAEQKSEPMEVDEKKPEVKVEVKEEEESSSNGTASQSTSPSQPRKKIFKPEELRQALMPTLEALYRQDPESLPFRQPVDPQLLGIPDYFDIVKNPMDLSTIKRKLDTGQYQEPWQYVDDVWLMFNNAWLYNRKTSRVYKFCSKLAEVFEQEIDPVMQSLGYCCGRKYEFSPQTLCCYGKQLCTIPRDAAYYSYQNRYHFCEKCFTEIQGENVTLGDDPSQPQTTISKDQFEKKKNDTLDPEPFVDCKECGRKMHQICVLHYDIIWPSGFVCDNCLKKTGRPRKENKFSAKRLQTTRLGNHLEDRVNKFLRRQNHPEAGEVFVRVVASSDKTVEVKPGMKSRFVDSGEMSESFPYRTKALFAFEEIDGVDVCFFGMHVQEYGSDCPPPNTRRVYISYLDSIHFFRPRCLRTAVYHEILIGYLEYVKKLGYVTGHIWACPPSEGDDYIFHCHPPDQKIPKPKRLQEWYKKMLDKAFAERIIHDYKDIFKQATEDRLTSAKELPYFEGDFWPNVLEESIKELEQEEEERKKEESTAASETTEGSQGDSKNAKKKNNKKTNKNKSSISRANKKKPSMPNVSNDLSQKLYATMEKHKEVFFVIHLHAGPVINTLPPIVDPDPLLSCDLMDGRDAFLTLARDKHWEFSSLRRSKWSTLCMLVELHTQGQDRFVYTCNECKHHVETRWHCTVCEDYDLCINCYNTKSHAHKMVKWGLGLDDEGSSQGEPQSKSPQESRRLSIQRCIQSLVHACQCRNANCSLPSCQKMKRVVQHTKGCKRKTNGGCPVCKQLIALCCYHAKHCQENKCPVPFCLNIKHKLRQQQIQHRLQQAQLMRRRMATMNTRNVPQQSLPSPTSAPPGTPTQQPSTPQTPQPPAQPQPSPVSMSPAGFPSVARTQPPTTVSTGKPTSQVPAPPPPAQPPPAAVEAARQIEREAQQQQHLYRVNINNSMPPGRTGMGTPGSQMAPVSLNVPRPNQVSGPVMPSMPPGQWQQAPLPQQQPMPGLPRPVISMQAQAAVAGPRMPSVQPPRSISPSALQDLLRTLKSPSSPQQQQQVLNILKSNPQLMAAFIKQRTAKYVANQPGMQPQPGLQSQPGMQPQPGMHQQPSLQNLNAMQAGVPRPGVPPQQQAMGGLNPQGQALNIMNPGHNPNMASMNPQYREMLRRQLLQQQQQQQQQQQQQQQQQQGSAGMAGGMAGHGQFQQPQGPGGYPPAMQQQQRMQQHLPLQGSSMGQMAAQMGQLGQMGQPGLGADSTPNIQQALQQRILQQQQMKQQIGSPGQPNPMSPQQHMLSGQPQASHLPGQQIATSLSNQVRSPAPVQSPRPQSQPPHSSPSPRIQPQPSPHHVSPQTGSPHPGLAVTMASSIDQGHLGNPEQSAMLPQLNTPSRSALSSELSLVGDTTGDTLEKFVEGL

In the case of `O=C1[C@H](Cc2ccc(O)cc2)N2C(=O)CCN(C(=O)NCc3ccccc3)[C@H]2CN1Cc1cccc2ccccc12` [ICG-001], the “inhibition of bleomycin-induced TCF/β-catenin transcription (β-galactosidase activity)” value [1] is reported as greater than 95%, the “disease progression, as judged by reduced mortality, histopathology and endogenous gene expression” value ([2]; 5 mg/Kg/day, murine bleomycin model) is reported as “not only halts but reverses disease progression” and the “airway histology (lung sections)” value [2, 5] is reported as “the airway looks essentially normal”. The body weight [2, 5] was “regained normal body weight”, the “collagen levels (trichrome stain)” value [2, 5] was “normal collagen levels” and the survival ([2]; 5 mgs/Kg/day for 10 days from the sixth day after intratracheal bleomycin, untreated controls did not survive) was “survived”. The “S100A4 message (RT-PCR)” value (S100A4) was “reduced essentially to negative control”, the “collagen1A2 message (RT-PCR)” value (collagen1A2) was “reduced essentially to negative control” and the “S100A4 expression (Western blot, whole cell lysates)” value (S100A4 (FSP-1)) was “decreased S100A4 expression”. For the same molecule, the “E-cadherin expression (Western blot, whole cell lysates)” value (E-Cadherin) was “increased E-cadherin expression”, the “effect on β-catenin/CBP interaction” value [3] was “selectively blocks the β-catenin/CBP interaction” and the “effect on β-catenin/p300 interaction” value [4] was “without interfering”.
